# Results from US10654889B2, “Peptide having anticancer activity, and pharmaceutical composition, health functional food composition and functional cosmetic composition for preventing and treating cancer comprising the same as active ingredient” (INDUSTRY-UNIVERSITY COOPERATION FOUNDATION HANYANG …, priority 2016, dated 2020).
# What was measured:
# [1] = test system: breast cancer cell line (MDA-MB-231); experiment: Cell growth inhibition and apoptosis induction, breast cancer cell line; format: cell-based; conditions: for growth inhibition and apoptosis-inducing effects: 0.05-10 μM, 0-96 hours; for growth inhibition and apoptosis-inducing effects (cell images, MTT assay, FIG. 6): compared to the untreated control, 48 hours images, 96 hours MTT
# Procedure: (§1) An embryonic kidney cell line (293T), a breast cancer cell line (MDA-MB-231), and colon cancer cell lines (HCT116 and HT29) were inoculated in a 96-well plate at a density of 3,000 cells/well, and 50 μL of a culture fluid was added thereto. The resulting mixture was cultured for an hour under 37° C./5% CO2 conditions. Each of the peptides prepared in Example 3 was added at an increasing concentration of 0.05, 1, 2, 3 and 10 μM to the well plate inoculated with each of the cell lines, and the resulting mixture was cultured for 0, 24, 48, 72 and 96 hours under 37° C./5% CO2 conditions. When the culture was completed, the cells were observed and their morphological changes were imaged using an inverted phase contrast microscope.
# [2] = test system: embryonic kidney cell line (293T); experiment: Cell growth inhibition and apoptosis induction, embryonic kidney cell line; format: cell-based; conditions: for growth inhibition and apoptosis-inducing effects: 0.05-10 μM, 0-96 hours; for growth inhibition and apoptosis-inducing effects (cell images, MTT assay, FIG. 6): compared to the untreated control, 48 hours images, 96 hours MTT
# Procedure: as §1
# [3] = test system: colon cancer cell line HT29; experiment: Cell growth inhibition and apoptosis induction, colon cancer cell line HT29; format: cell-based; conditions: for growth inhibition and apoptosis-inducing effects: 0.05-10 μM, 0-96 hours; for growth inhibition and apoptosis-inducing effects (cell images, MTT assay, FIG. 6): compared to the untreated control, 48 hours images, 96 hours MTT
# Procedure: as §1
# [4] = test system: colon cancer cell line HCT116; experiment: Cell growth inhibition and apoptosis induction, colon cancer cell line HCT116; format: cell-based; conditions: for growth inhibition and apoptosis-inducing effects: 0.05-10 μM, 0-96 hours; for growth inhibition and apoptosis-inducing effects (cell images, MTT assay, FIG. 6): compared to the untreated control, 48 hours images, 96 hours MTT
# Procedure: as §1
# cancer cells = conditions: cell and mouse xenograft models; Grant et al. 2012; cited from earlier work
# breast cancer cells = experiment: Growth inhibition and apoptosis in breast cancer cells; format: cell-based; conditions: compared with Peptide 5-2C
# colon cancer cells = experiment: Growth inhibition and apoptosis in colon cancer cells; format: cell-based; conditions: compared with Peptide 5-2C
# kidney-derived cells = experiment: Growth inhibition and apoptosis in kidney-derived cells; format: cell-based; conditions: compared with Peptide 5-2C
# various cells = experiment: IC50 in various cells (MTT, FIG. 16); format: cell-based; conditions: compared with Peptide 5-2C
# liver cancer cells = experiment: Growth inhibition and apoptosis in liver cancer cells; format: cell-based; conditions: compared with Peptide 5-2C
# leukemia cells = experiment: Growth inhibition and apoptosis in leukemia cells; format: cell-based; conditions: compared with Peptide 5-2C
# [5] = test system: liver cancer cell line (Hep3B); experiment: Cell growth inhibition and apoptosis, liver cancer cell line (MTT, CCK, Crystal Violet); format: cell-based; conditions: Hep3B treated once with peptide; compared to 5-2C-treated group
# Source text: The peptides were used to analyze effects on cell growth inhibition and apoptosis in the liver cancer cell line (Hep3B). FIGS. […] 8C and 8D graphically show the growth inhibition and apoptosis-inducing effects of the respective peptides at different concentrations. […] Therefore, it can be seen that the peptide of SEQ ID NO: 1 according to the present invention is a peptide having a sequence composed of an optimized number of amino acids to have anticancer activity.
Compound,growth inhibition and apoptosis-inducing effects [1],growth inhibition and apoptosis-inducing effects [2],"growth inhibition and apoptosis-inducing effects (cell images, MTT assay, FIG. 6) [2]",growth inhibition and apoptosis-inducing effects [3],"growth inhibition and apoptosis-inducing effects (cell images, MTT assay, FIG. 6) [3]",growth inhibition and apoptosis-inducing effects [4],"growth inhibition and apoptosis-inducing effects (cell images, MTT assay, FIG. 6) [4]","growth inhibition and apoptosis-inducing effects (cell images, MTT assay, FIG. 6) [1]",further results
Ac-YPQcrgdkgpdc-amide [Peptide 5-2-31C],no growth inhibition and apoptosis-inducing effects at all,,,,,,,,
Ac-YPQRPcrgdkgpdc-amide [Peptide 5-2-52C],exhibited growth inhibition and apoptosis-inducing effects,exhibited growth inhibition and apoptosis-inducing effects,superior growth inhibition and apoptosis-inducing effects,exhibited growth inhibition and apoptosis-inducing effects,superior growth inhibition and apoptosis-inducing effects,exhibited growth inhibition and apoptosis-inducing effects,superior growth inhibition and apoptosis-inducing effects,superior growth inhibition and apoptosis-inducing effects,
Ac-NYPQRcrgdkgpdc-amide [Peptide 5-2-51C],exhibited growth inhibition and apoptosis-inducing effects,exhibited growth inhibition and apoptosis-inducing effects,superior growth inhibition and apoptosis-inducing effects,exhibited growth inhibition and apoptosis-inducing effects,superior growth inhibition and apoptosis-inducing effects,exhibited growth inhibition and apoptosis-inducing effects,superior growth inhibition and apoptosis-inducing effects,superior growth inhibition and apoptosis-inducing effects,
Ac-PQRcrgdkgpdc-amide [Peptide 5-2-32C],no growth inhibition and apoptosis-inducing effects at all,,,,,,,,
"CRGDKGPDC [iRGD, reference compound]",no growth inhibition and apoptosis-inducing effects at all,,,,,,,,
"CCOc1ccccc1C1CC(=O)Nc2cc3c(cc21)OCO3 (centres unmarked) [FQI1, Factor Quinolinone Inhibitor 1]",,,,,,,,,inhibition of cancer cells versus normal cells (cancer cells): successful in inhibiting only the cancer cells without exerting any influence on normal cells
Ac-YPQRcrgdkgpdc-amide [Peptide 5-2-4C],exhibited growth inhibition and apoptosis-inducing effects,exhibited growth inhibition and apoptosis-inducing effects,superior growth inhibition and apoptosis-inducing effects,exhibited growth inhibition and apoptosis-inducing effects,superior growth inhibition and apoptosis-inducing effects,exhibited growth inhibition and apoptosis-inducing effects,superior growth inhibition and apoptosis-inducing effects,superior growth inhibition and apoptosis-inducing effects,"growth inhibition and apoptosis (breast cancer cells): a tendency very similar to Peptide 5-2C; growth inhibition and apoptosis (colon cancer cells): a tendency very similar to Peptide 5-2C; growth inhibition and apoptosis (kidney-derived cells): a tendency very similar to Peptide 5-2C; IC50 value at 48 hours (various cells): very similar to that of Peptide 5-2C; growth inhibition and apoptosis (liver cancer cells): a tendency very similar to Peptide 5-2C; growth inhibition and apoptosis (leukemia cells): a tendency very similar to Peptide 5-2C; change in IC50 values observed for 3 days [5]: steadily decreasing over 3 days, a level of which was highly similar to that of Peptide 5-2C"
